One assay concerns the target JMJD2C (Homo sapiens (Human), UniProt Q9H3R0). Briefly: JMJD2C in vitro enzyme inhibition assay (TR-FRET). The assay is classed as biochemical. The conditions noted are these: 0.3 nM JMJD2C, 300 nM H3K9me3-biotin peptide, 2 μM alpha-ketoglutaric acid, 30 minutes. The method, then:
This assay determines the ability of a test compound to inhibit JMJD2C demethylase activity. Baculovirus expressed JMJD2C (GenBank Accession #BC143571, AA 2-372) was purchased from BPS Bioscience (Cat#50105).
The ability of test compounds to inhibit the activity of JMJD2C was determined in 384-well plate format under the following reaction conditions: 0.3 nM JMJD2C, 300 nM H3K9me3-biotin labeled peptide (Anaspec cat #64360), 2 μM alpha-ketoglutaric acid in assay buffer of 50 mM HEPES, pH7.3, 0.005% Brij35, 0.5 mM TCEP, 0.2 mg/ml BSA, 50 μM sodium L-ascorbate, and 2 μM ammonium iron(II) sulfate. Reaction product was determined quantitatively by TR-FRET after the addition of detection reagent Phycolink Streptavidin-allophycocyanin (Prozyme) and Europium-anti-di-methylated histone H3 lysine 9 (H3K9me2) antibody (PerkinElmer) in the presence of 5 mM EDTA in LANCE detection buffer (PerkinElmer) at a final concentration of 50 nM and 1 nM, respectively.
The assay reaction was initiated by the following: 2 μl of the mixture of 900 nM H3K9me3-biotin labeled peptide and 6 μM alpha-ketoglutaric acid with 2 μl of 11-point serial diluted inhibitor in 3% DMSO were added to each well of the plate, followed by the addition of 2 μl of 0.9 nM JMJD2C to initiate the reaction. The reaction mixture was incubated at room temperature for 30 minutes, and terminated by the addition of 6 μl of 5 mM EDTA in LANCE detection buffer containing 100 nM Phycolink Streptavidin-allophycocyanin and 2 nM Europium-anti-H3K9me2 antibody. Plates were read by EnVisionMultilabel Reader in TR-FRET mode (excitation at 320 nm, emission at 615 nm and 665 nm) after 1 hour incubation at room temperature. A ratio was calculated (665/615) for each well and fitted to determine inhibition constant (IC50).
The ability of the compounds disclosed herein to inhibit demethylase activity was quantified and the respective IC50 value was determined. Table 3 provides the IC50 values of various compounds disclosed herein.

Assay [1] concerns KYSE-150 esophageal carcinoma cell line. Briefly: In vitro cell-based assay: BrdU incorporation cell proliferation ELISA. Also on record: species or system human. To be noted: Homo sapiens, KYSE-150 cells, 168 hours compound incubation, read-out: Cellular IC50. The method, then: Cell lines tested include the JMJD2C gene amplified cell line KYSE-150. This is a quantitative ELISA assay measuring DNA incorporation of BrdU during S-phase as a direct readout of cellular proliferation.
Assay Principle: This is a colorimetric immunoassay for the quantification of cell proliferation. Cells treated for 168 hours with test compounds are assayed for their ability to go through S-phase as a measure of their proliferative potential.
Assay Method: The human KYSE-150 (SMAD4 mut, TP53 mut) esophageal carcinoma cell line was seeded at 2,000 cells/well on a 96-well tissue culture treated plate. After an overnight incubation, cells were treated with compound in an 11-point dilution series with final concentrations ranging from 100 μM to 2 nM. Cells were then incubated in the presence of compound for 168 hours. After compound incubation the cells were assayed using a BrdU Cell Proliferation ELISA (Roche). The cells were first incubated with BrdU labeling reagent for 2 hours. After 2 hours, the BrdU incorporated cells were fixed and denatured, probed with an anti-BrdU-Peroxidase antibody for 1.5 hours and washed. Finally, a tetramethylbenzidine peroxidase substrate was added to each well for 15 minutes followed by a H2SO4 stop solution. The plate was read at 450 nm, and the raw optical density data was transferred into XLFit (IDBS) for IC50 calculation using the formula: fit=(D+((Vmax*(x^n))/((x^n)+(Km^n))))
Table 4 provides the cellular IC50 values of various compounds disclosed herein.
(In general: Incorporation of labelled thymidine or its analogues reports DNA synthesis.)

Where only a bound is given, the exact number is not on record here.

JMJD2C, sequence (Q9H3R0 2-372): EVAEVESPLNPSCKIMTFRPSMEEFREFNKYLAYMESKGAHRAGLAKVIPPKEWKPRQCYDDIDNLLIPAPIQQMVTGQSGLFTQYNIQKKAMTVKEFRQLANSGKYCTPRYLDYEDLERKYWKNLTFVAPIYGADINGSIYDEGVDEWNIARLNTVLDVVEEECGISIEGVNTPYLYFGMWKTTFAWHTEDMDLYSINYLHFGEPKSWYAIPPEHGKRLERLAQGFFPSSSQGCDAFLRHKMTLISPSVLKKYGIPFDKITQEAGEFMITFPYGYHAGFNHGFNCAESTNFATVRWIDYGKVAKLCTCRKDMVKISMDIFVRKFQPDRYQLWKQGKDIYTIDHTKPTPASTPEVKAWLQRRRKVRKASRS

As usually defined, the IC50 is the concentration that gives 50% inhibition. With `Cc1ccc(N(C)c2ccc(Oc3nc(O)c4ccncc4n3)cc2)cc1N1CCOCC1` [Example 55, 2-[4-(N,4-dimethyl-3-morpholin-4-ylanilino)phenoxy]pyrido[3,4-d]pyrimidin-4-ol], the values for the IC50 (at JMJD2C; in assay [1]) were 100 to 1000 nM and 1000 to 10000 nM, respectively.
Take `CN(c1ccc(Oc2nc(O)c3ccncc3n2)cc1)c1cccc(S(C)(=O)=O)c1` [Example 56, 2-[4-(N-methyl-3-methylsulfonylanilino)phenoxy]pyrido[3,4-d]pyrimidin-4-ol]: the half-inhibitory concentration (IC50) is 100 to 1000 nM against JMJD2C and > 10000 nM in assay [1].
Regarding `CN(c1ccc(Oc2nc(O)c3ccncc3n2)cc1)c1ccc(S(C)(=O)=O)cc1` [Example 57, 2-[4-(N-methyl-4-methylsulfonylanilino)phenoxy]pyrido[3,4-d]pyrimidin-4-ol], the 50% inhibitory concentration (IC50) against JMJD2C was 100 to 1000 nM; in assay [1], > 10000 nM.
Regarding `CN(c1ccc(Oc2nc(O)c3ccncc3n2)cc1)c1cccc(N2CCCC(N)C2)c1` (centres unmarked) [Example 58, 2-[4-[3-(3-aminopiperidin-1-yl)-N-methylanilino]phenoxy]pyrido[3,4-d]pyrimidin-4-ol], the IC50 is ≤ 100 nM against JMJD2C and > 10000 nM in assay [1].
As for `CCc1ccc(N(C)c2ccc(Oc3nc(O)c4ccncc4n3)cc2)cc1N1CCOCC1` [Example 59, 2-[4-(4-ethyl-N-methyl-3-morpholin-4-ylanilino)phenoxy]pyrido[3,4-d]pyrimidin-4-ol], the IC50 on JMJD2C was ≤ 100 nM; in assay [1] it was > 10000 nM.
In the same order, the values of `CCc1ccc(N(C)c2ccc(Oc3nc(O)c4ccncc4n3)cc2)cc1N1CCN(C)CC1` [Example 60, 2-[4-[4-ethyl-N-methyl-3-(4-methylpiperazin-1-yl)anilino]phenoxy]pyrido[3,4-d]pyrimidin-4-ol] are ≤ 100 nM and > 10000 nM.
As for `CN(c1ccc(Oc2nc(O)c3ccncc3n2)cc1)c1ccnc(N2CCOCC2)c1` [Example 61, 2-[4-[methyl-(2-morpholin-4-ylpyridin-4-yl)amino]phenoxy]pyrido[3,4-d]pyrimidin-4-ol], the 50% inhibitory concentration (IC50) is ≤ 100 nM against JMJD2C and > 10000 nM in assay [1].
As for `CN(CC1CCc2ccccc21)c1ccc(Oc2nc(O)c3ccncc3n2)cc1` (centres unmarked) [Example 62, 2-[4-[2,3-dihydro-1H-inden-1-ylmethyl(methyl)amino]phenoxy]pyrido[3,4-d]pyrimidin-4-ol], the IC50 lay within 100 to 1000 nM against JMJD2C and 1000 to 10000 nM in assay [1].
On to `CN(c1ccc(Oc2nc(O)c3ccncc3n2)cc1)c1ccc(C(C)(C)O)cc1` [Example 64, 2-[4-[4-(2-hydroxypropan-2-yl)-N-methylanilino]phenoxy]pyrido[3,4-d]pyrimidin-4-ol], for which the half-maximal inhibitory concentration (IC50) (on JMJD2C; in assay [1]) was 100 to 1000 nM each time.
On to `CCc1ccc(N(C)c2ccc(Oc3nc(O)c4ccncc4n3)cc2)cc1OCCN(C)C` [Example 65, 2-[4-[3-[2-(dimethylamino)ethoxy]-4-ethyl-N-methylanilino]phenoxy]pyrido[3,4-d]pyrimidin-4-ol], for which the figures for the half-maximal inhibitory concentration (IC50) (on JMJD2C; in assay [1]) were ≤ 100 nM and > 10000 nM, respectively.
With `CCc1ccc(N(C)c2ccc(Oc3nc(O)c4ccncc4n3)cc2)cc1OCCOC` [Example 66, 2-[4-[4-ethyl-3-(2-methoxyethoxy)-N-methylanilino]phenoxy]pyrido[3,4-d]pyrimidin-4-ol], the IC50 (on JMJD2C; in assay [1]) was 1000 to 10000 nM in each case.
In the case of `COCC(C)(C)c1ccc(N(C)c2ccc(Oc3nc(O)c4ccncc4n3)cc2)cc1` [Example 67, 2-[4-[4-(1-methoxy-2-methylpropan-2-yl)-N-methylanilino]phenoxy]pyrido[3,4-d]pyrimidin-4-ol], the concentration for half-maximal inhibition (IC50) against JMJD2C was 1000 to 10000 nM; in assay [1], ≤ 100 nM.
As to `CN(c1ccc(Oc2nc(O)c3ccncc3n2)cc1)c1ccc(C(C)(C)CO)cc1` [Example 68, 2-[4-[4-(1-hydroxy-2-methylpropan-2-yl)-N-methylanilino]phenoxy]pyrido[3,4-d]pyrimidin-4-ol], the IC50 (against JMJD2C; in assay [1]) was 100 to 1000 nM in each case.
Take `CCCc1ccc(N(C)c2ccc(Oc3nc(O)c4ccncc4n3)cc2)cc1` [Example 69, 2-[4-(N-methyl-4-propylanilino)phenoxy]pyrido[3,4-d]pyrimidin-4-ol]: the 50% inhibitory concentration (IC50) is 1000 to 10000 nM at JMJD2C and ≤ 100 nM in assay [1].
In the same order, the values of `CNCC(C)c1ccc(N(C)c2ccc(Oc3nc(O)c4ccncc4n3)cc2)cc1` (centres unmarked) [Example 70, 2-[4-[N-methyl-4-[1-(methylamino)propan-2-yl]anilino]phenoxy]pyrido[3,4-d]pyrimidin-4-ol] are ≤ 100 nM and > 10000 nM.
Take `CC(CCN)c1ccc(N(C)c2ccc(Oc3nc(O)c4ccncc4n3)cc2)cc1` (centres unmarked) [Example 71, 2-[4-[4-(4-aminobutan-2-yl)-N-methylanilino]phenoxy]pyrido[3,4-d]pyrimidin-4-ol]: the IC50 is ≤ 100 nM on JMJD2C and 1000 to 10000 nM in assay [1].
On to `CNCCC(C)c1ccc(N(C)c2ccc(Oc3nc(O)c4ccncc4n3)cc2)cc1` (centres unmarked) [Example 72, 2-[4-[N-methyl-4-[4-(methylamino)butan-2-yl]anilino]phenoxy]pyrido[3,4-d]pyrimidin-4-ol], for which the IC50 was ≤ 100 nM against JMJD2C and > 10000 nM in assay [1].
Regarding `CN(c1ccc(OCC(F)(F)F)cc1)c1ccc(Oc2nc(O)c3ccncc3n2)cc1` [Example 73, 2-[4-[N-methyl-4-(2,2,2-trifluoroethoxy)anilino]phenoxy]pyrido[3,4-d]pyrimidin-4-ol], the IC50 against JMJD2C was 100 to 1000 nM; in assay [1], ≤ 100 nM.
As for `CC(C)COc1ccc(N(C)c2ccc(Oc3nc(O)c4ccncc4n3)cc2)cc1` [Example 74, 2-[4-[N-methyl-4-(2-methylpropoxy)anilino]phenoxy]pyrido[3,4-d]pyrimidin-4-ol], the half-maximal inhibitory concentration (IC50) is 1000 to 10000 nM against JMJD2C and ≤ 100 nM in assay [1].
Consider `CN(c1ccc(OCC(C)(C)C)cc1)c1ccc(Oc2nc(O)c3ccncc3n2)cc1` [Example 75, 2-[4-[4-(2,2-dimethylpropoxy)-N-methylanilino]phenoxy]pyrido[3,4-d]pyrimidin-4-ol], for which the figures for the IC50 (on JMJD2C; in assay [1]) were 1000 to 10000 nM and ≤ 100 nM, respectively.
Consider `CN(c1ccc(CC2CC2)cc1)c1ccc(Oc2nc(O)c3ccncc3n2)cc1` [Example 76, 2-[4-[4-(cyclopropylmethyl)-N-methylanilino]phenoxy]pyrido[3,4-d]pyrimidin-4-ol], for which the concentration for half-maximal inhibition (IC50) on JMJD2C was 1000 to 10000 nM; in assay [1], ≤ 100 nM.
Consider `CC[C@H](C)c1ccc(N(C)c2ccc(Oc3nc(O)c4ccncc4n3)cc2)cc1` [Example 77, 2-[4-[4-[(2S)-butan-2-yl]-N-methylanilino]phenoxy]pyrido[3,4-d]pyrimidin-4-ol], for which the values for the 50% inhibitory concentration (IC50) (at JMJD2C; in assay [1]) were 1000 to 10000 nM and ≤ 100 nM, respectively.
Regarding `CC[C@@H](C)c1ccc(N(C)c2ccc(Oc3nc(O)c4ccncc4n3)cc2)cc1` [Example 78, 2-[4-[4-[(2R)-butan-2-yl]-N-methylanilino]phenoxy]pyrido[3,4-d]pyrimidin-4-ol], the IC50 is 1000 to 10000 nM on JMJD2C and ≤ 100 nM in assay [1].
Turning to `CN1CCN(c2cccc(N(C)c3ccc(Oc4nc(O)c5ccncc5n4)cc3)c2)CC1` [Example 79, 2-[4-[N-methyl-3-(4-methylpiperazin-1-yl)anilino]phenoxy]pyrido[3,4-d]pyrimidin-4-ol], the half-maximal inhibitory concentration (IC50) (against JMJD2C; in assay [1]) was ≤ 100 nM throughout.
Turning to `CCN(c1ccccc1)c1ccc(Oc2nc(O)c3ccncc3n2)cc1` [Example 80, 2-[4-(N-ethylanilino)phenoxy]pyrido[3,4-d]pyrimidin-4-ol], the IC50 (on JMJD2C; in assay [1]) was 100 to 1000 nM each time.

These data come from patent US10112940B2, “Histone demethylase inhibitors” (Celgene Quanticel Research, Inc., priority 2014, dated 2018).
